One data set addresses T1, PARP1 (Homo sapiens, UniProt P09874).
T1 construct: purchased BPS 80501
In words: PARP1 enzyme assay (histone-coated plate, chemiluminescence). Particulars: PARP1 0.02 nM, DNA 0.8 nM, NAD+ 3.5 µM; read-out: PARP-1 IC50. Format: biochemical.

Data set [1] has as its system BRCA-mutated MDA-MB-436 cells. In words: Anti-proliferative activity against cells (CCK8): MDA-MB-436. Format: cell-based. The note with it: Homo sapiens, 72 h + 96 h culture.
The test system of data set [2] is BRCA wild-type DLD-1 cells. In words: Anti-proliferative activity against cells (CCK8): DLD-1. Format: cell-based. The note with it: Homo sapiens, 72 h + 96 h culture. Summed up: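 DLD-1 cells (1000/well) in RPMI-1640 with 10% FBS, treated 24 h after plating with PARPi at 0, 1 or 10 µM final. Cultured 72 h, medium exchanged with re-added PARPi, then a further 96 h; read-out by CCK8.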

The test system of data set [3] is CD34+ hematopoietic stem and progenitor cells (hmPB34-P-SC). Kind of data set: Hematological toxicity assay (CellTiter-Glo 2.0). The data set is classed as cell-based. Particulars: 120 h; 5 days of culture. Here is the method:
The next day, the cells were resuspended and seeded in a 96-well plate at a concentration of 1000 cells/well, and meanwhile, different concentrations of the drug were added for treatment, with 3 replicate wells set for each concentration. After 5 days of culture, the number of viable cells in each well was determined using a CellTiter-Glo 2.0 kit, followed by detection by a microplate reader.
For orientation: In ATP-based viability assays light output follows the ATP content of the culture.

Data set [4] addresses T2, hERG potassium ion channel (Homo sapiens, UniProt Q12809).
T2 construct: expressed in transfected cells; host or cells: CHO cells
In words: Inhibition of hERG potassium ion channel (Qpatch, CHO cells stably expressing hERG). The data set is classed as cell-based. Particulars: for inhibitory effects on the hERG potassium ion channel (in words): conclusion of Table 17; for inhibition at 2.5 min, 20 µM: human, CHO cells stably expressing hERG, read-out: Inhibition rate at 20 µM. Here is the method: Cell culture and treatment: CHO cells stably expressing hERG were cultured in a cell culture flask and incubated in an incubator with 5% CO2 at 37 °C. When the cell density reached 60%-80%, the cell culture medium was removed by pipetting. The cells were washed once with PBS, and then Detachin was added for detachment. After complete detachment, a culture medium was added for neutralization. The cells were then centrifuged, and the supernatant was removed by pipetting. A culture medium was further added for resuspension, and the cell density was adjusted to (2-5) × 10^6 cells/mL for later use.
Compound preparation: The compound stock solution was diluted with 100% DMSO. Specifically, 10 µL of the compound stock solution was added to 20 µL of DMSO, followed by a 3-fold serial dilution to obtain 6 concentrations. 4 µL of each of the 6 compound solutions at different concentrations was taken and added to 396 µL of an extracellular fluid, resulting in a 100-fold dilution to obtain 6 intermediate concentrations. Then, 80 µL of each of the 6 intermediate-concentration compound solutions was taken and added to 320 µL of an extracellular fluid, resulting in a 5-fold dilution to achieve the final test concentrations. The highest test concentration was 40 µM. […] DMSO at this concentration has no effect on the hERG potassium channel. During the compound preparation, the entire dilution process was completed by a Bravo instrument.
Electrophysiological recording process: The single-cell high-impedance sealing and whole-cell mode formation processes were all completed automatically by a Qpatch instrument. After achieving the whole-cell recording mode, the cells were clamped at -80 mV. Before a 5-second +40 mV depolarizing stimulus was applied, a 50-millisecond -50 mV prepulse voltage was first applied. The potential was then repolarized to -50 mV and held for 5 s, and finally returned to -80 mV. This voltage stimulation was applied every 15 s. After 2 min of recording, the extracellular fluid was administered, followed by recording for 5 min. Then, the compound administration process began, starting from the lowest test compound concentration. Each test concentration was applied for 2.5 min. After all the concentrations were applied consecutively, the positive control compound, 3 µM Cisapride, was administered. At least 3 cells (n ≥ 3) were tested for each concentration.
Data processing: Data analysis and processing were performed using GraphPad Prism 5.0 and Excel software. The IC50 of the compound was calculated using GraphPad Prism 5 software by equation fitting as follows: Y = Bottom + (Top−Bottom)/(1+10^(∧)((LogIC50−X)*HillSLope)) [formula] where X is the Log value of the test concentration of the test sample, Y is the inhibition percentage at the corresponding concentration, and Bottom and Top are the minimum and maximum inhibition percentages, respectively. Table 17. Results of inhibition of hERG potassium ion channel by compounds
(In general: The hERG channel carries a current that helps repolarise heart muscle cells.)

Data set [5] is described as follows: Pharmacokinetic evaluation in Balb/c mice. The data set is classed as in vivo. The note with it: 1mg/kg, PO. As to the method:
Experimental objective: To understand the pharmacokinetic profiles of the compounds. Experimental basis: Technical guidelines for non-clinical pharmacokinetic studies of chemical drugs, 2014.
Experimental scheme: The pharmacokinetic profiles of the compounds were investigated by intravenous administration (1 mg·kg^-1) and intragastric administration (1 mg·kg^-1) in Balb/c mice.
Sample preparation: About 0.2 mg of the compound was weighed out and dissolved in 10 µL of DMSO, and then a sodium chloride solution for injection was added to prepare a 0.1 mg·mL^-1 compound solution for later administration.
Three of the mice were subjected to intravenous administration (IV) at 1 mg·kg^-1, while the other three were subjected to intragastric administration (PO) at 1 mg·kg^-1. About 0.05 mL of blood was collected at 5 min, 15 min, 30 min, 1 h, 2 h, 4 h, 6 h, 8 h, 10 h, 24 h, and 48 h after administration. The collected blood was centrifuged at 3500 rpm for 15 min. The supernatant plasma was then collected and cryopreserved at -40 °C for later analysis. The plasma concentration was quantitatively analyzed using the LC-MS/MS method, and pharmacokinetic parameters such as […] (Cmax), area under plasma concentration-time curve (AUC(0-t)), half-life (T1/2), clearance rate (CL), tissue distribution (Vdss), and bioavailability (F) were calculated. Table 18. Results of pharmacokinetic test of compounds in Balb/c mice

Data set [6] is described as follows: Cerebrospinal fluid and plasma distribution in vivo. The note with it: rat, male rats, intravenous 5 mg/kg, n = 1. Here is the method:
Experimental procedures: The compound was weighed out, a small amount of DMSO was added, and then a sodium chloride solution for injection was added to prepare a 5 mg·mL^-1 compound solution for later administration. […] 10 µL of the plasma and 10 µL of the cerebrospinal fluid were each added to a centrifuge tube, and 40 µL of acetonitrile containing 20 ng·mL^-1 internal standard SAHA was added for precipitation. […] The supernatant was collected and transferred to a sample vial for later analysis. Range of standard curve: 1-1000 ng·mL^-1.

[7] abbreviates: cerebrospinal fluid, read-out: Cerebrospinal fluid.

The structures appear in SMILES notation. Like-named read-outs stand apart in the source and are kept apart here. A value given as a limit tells only on which side of the number the result lay.

T2 sequence (Q12809 whole entry): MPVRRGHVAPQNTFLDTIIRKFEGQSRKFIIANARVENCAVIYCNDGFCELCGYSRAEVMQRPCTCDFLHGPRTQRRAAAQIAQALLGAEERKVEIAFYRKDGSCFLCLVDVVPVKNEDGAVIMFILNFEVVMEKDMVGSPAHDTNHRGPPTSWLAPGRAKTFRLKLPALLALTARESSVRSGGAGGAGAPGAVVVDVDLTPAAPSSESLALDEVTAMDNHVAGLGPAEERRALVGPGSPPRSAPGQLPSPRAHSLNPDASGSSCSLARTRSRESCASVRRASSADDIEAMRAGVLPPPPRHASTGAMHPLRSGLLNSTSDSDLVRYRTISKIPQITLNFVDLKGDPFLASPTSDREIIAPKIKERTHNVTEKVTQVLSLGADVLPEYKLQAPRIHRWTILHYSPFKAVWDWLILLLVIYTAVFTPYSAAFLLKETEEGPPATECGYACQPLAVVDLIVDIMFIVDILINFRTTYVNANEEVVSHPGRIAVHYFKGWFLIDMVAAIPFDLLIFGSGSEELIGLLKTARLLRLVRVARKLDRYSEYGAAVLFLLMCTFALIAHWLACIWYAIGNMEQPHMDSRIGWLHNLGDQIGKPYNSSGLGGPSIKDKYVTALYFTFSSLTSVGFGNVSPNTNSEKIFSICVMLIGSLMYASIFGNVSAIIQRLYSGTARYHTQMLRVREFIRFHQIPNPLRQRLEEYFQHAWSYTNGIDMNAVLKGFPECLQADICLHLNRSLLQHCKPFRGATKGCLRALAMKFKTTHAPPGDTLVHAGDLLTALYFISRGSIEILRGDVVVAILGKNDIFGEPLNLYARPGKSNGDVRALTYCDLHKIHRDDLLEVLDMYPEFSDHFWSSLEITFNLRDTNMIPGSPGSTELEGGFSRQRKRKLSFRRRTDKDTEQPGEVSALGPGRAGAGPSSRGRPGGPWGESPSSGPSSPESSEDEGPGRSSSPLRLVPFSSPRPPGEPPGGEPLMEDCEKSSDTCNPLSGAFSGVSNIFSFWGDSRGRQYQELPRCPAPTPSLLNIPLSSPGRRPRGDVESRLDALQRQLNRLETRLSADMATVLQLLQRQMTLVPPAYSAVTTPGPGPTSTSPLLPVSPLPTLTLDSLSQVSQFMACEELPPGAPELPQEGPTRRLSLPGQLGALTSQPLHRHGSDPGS
T1 sequence (P09874 whole entry): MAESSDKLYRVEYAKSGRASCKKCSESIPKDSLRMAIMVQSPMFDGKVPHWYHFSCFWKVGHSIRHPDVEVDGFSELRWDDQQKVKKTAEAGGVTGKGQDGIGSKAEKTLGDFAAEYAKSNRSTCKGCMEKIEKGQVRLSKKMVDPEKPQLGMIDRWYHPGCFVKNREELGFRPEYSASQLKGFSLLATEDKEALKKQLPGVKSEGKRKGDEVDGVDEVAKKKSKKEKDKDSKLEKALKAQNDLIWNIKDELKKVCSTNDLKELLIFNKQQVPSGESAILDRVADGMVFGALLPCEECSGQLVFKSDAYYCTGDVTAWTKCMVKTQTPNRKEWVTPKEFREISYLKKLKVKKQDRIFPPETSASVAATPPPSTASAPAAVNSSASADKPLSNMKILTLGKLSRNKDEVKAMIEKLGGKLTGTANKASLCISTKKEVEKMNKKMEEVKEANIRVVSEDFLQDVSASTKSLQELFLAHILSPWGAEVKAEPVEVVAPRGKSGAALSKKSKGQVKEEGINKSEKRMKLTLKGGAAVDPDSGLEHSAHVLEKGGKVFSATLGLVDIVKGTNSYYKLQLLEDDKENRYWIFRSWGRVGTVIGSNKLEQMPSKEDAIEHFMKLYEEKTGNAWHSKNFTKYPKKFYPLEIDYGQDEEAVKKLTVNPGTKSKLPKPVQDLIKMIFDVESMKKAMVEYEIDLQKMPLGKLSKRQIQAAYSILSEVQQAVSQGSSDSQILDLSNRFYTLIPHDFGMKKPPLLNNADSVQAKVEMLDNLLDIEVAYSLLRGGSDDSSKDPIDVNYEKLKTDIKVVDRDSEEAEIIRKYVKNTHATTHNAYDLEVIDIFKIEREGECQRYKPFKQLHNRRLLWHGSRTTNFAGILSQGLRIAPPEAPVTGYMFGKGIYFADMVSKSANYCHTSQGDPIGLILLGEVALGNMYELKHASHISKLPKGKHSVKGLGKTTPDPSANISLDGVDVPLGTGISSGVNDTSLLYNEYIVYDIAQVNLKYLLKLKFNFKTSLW

On to `CNC(=O)c1ccc(N2CCN(C[C@H]3CCc4nc(C)c(=O)[nH]c4C3)CC2)c(Cl)n1` [Example 106, (S)-6-Chloro-N-methyl-5-(4-((2-methyl-3-oxo-3,4,5,6,7,8-hexahydroquinoxalin-6-yl)methyl)piperazin-1-yl)picolinamide], for which the 50% inhibitory concentration (IC50) (as a rule, the concentration that gives 50% inhibition) was at most 50 nM at PARP1, 6.5 nM in data set [1], over 1000 nM in data set [2] and over 1000 nM in data set [3].
As for `CNC(=O)c1ccc(N2CCN(CC3Cc4[nH]c(=O)c(SC)cc4CO3)CC2)c(C)n1` (stereo not drawn) [Example 87, N,6-Dimethyl-5-(4-((3-(methylthio)-2-oxo-1,5,7,8-tetrahydro-2H-pyrano[4,3-b]pyridin-7-yl)methyl)piperazin-1-yl)picolinamide], the IC50 on PARP1 was at most 50 nM; in data set [1], 8.5 nM; in data set [2], over 1000 nM. The “inhibitory effects on the hERG potassium ion channel (in words)” value (“inhibitory effects” for short) in data set [4] is “Conclusion: Compounds 2, 6, 45, 62, 67, 74, 83, 87, etc., of the present disclosure exhibited relatively weak inhibitory effects on the hERG potassium ion channel”. Further, in data set [4], the inhibition (usually the relative decrease from the control value, in per cent) at 2.5 min, 20 µM came out at 7.34%.
Take `Cc1cc2c([nH]c1=O)CC(CN1CCN(c3ccc(C(=O)Nc4cnn(C)c4)nc3F)CC1)OC2` (stereo not drawn) [Example 77, 6-Fluoro-N-(1-methyl-1H-pyrazol-4-yl)-5-(4-((3-methyl-2-oxo-1,5,7,8-tetrahydro-2H-pyrano[4,3-b]pyridin-7-yl)methyl)piperazin-1-yl)picolinamide]: the IC50 on PARP1 is at most 50 nM; in data set [1], 3.9 nM; in data set [2] it was over 1000 nM; in data set [3] it was 307 nM.
The corresponding values for `Cc1nc2c([nH]c1=O)C[C@@H](CN1CCN(c3ccc(C(=O)NC4CC4)nc3F)CC1)CC2` [Example 81, (S)-N-Cyclopropyl-6-fluoro-5-(4-((2-methyl-3-oxo-3,4,5,6,7,8-hexahydroquinoxalin-6-yl)methyl)piperazin-1-yl)picolinamide] are at most 50 nM, 4.1 nM, over 1000 nM and over 1000 nM.
In the case of `CNC(=O)c1ccc(C2=CCN(CC3Cc4[nH]c(=O)c(C5CC5)cc4CO3)CC2)c(F)n1` (stereo not drawn) [Example 51, 1'-((3-Cyclopropyl-2-oxo-1,5,7,8-tetrahydro-2H-pyrano[4,3-b]pyridin-7-yl)methyl)-2-fluoro-N-methyl-1',2',3',6'-tetrahydro-[3,4'-bipyridine]-6-carboxamide], the IC50 on PARP1 was 50 to 500 nM. For the same molecule, in data set [1], the IC50 is 160 nM. Moreover, the half-maximal inhibitory concentration (IC50) in data set [2] was over 1000 nM. Besides, in data set [5], the CL is 0.17 mL/min/kg and the Vdss is listed as 0.04 L/kg. Besides, in data set [5] (male, mouse, plasma), the exposure AUC(0-t) – broadly, exposure summed from dosing to a finite time, without extrapolation to infinity – came out at 96800 ng·h/mL; the highest concentration (Cmax) – broadly, the peak of the concentration-time curve – came to 6280 ng/mL; the half-life – broadly, the time in which the quantity being followed falls by half – is 15.9 h. In addition, in data set [6] (setting [7]), the concentration at 0.25 h is 53 ng/g and the concentration at 2 h was 25 ng/g. For the same molecule, in data set [6] (plasma, read-out: Plasma), the concentration at 0.25 h stood at 41900 ng/mL and the concentration at 2 h was 21700 ng/mL. The same molecule came in with an IC50 in data set [3] of over 1000 nM.
As for `[2H]C([2H])([C@H]1CCc2nc(C)c(=O)[nH]c2C1)N1CCN(c2ccc(C(=O)NC)nc2F)CC1` [Example 83, (S)-6-Fluoro-N-methyl-5-(4-((2-methyl-3-oxo-3,4,5,6,7,8-hexahydroquinoxalin-6-yl)methyl-d 2)piperazin-1-yl)picolinamide], the IC50 in data set [2] is over 1000 nM. In data set [4], the “inhibitory effects” value is listed as “Conclusion: Compounds 2, 6, 45, 62, 67, 74, 83, 87, etc., of the present disclosure exhibited relatively weak inhibitory effects on the hERG potassium ion channel” and the inhibition at 2.5 min, 20 µM was found to be 0.92%. For the same molecule, in data set [6] (setting [7]), the concentration at 0.25 h turned out to be 86 ng/g and the concentration at 2 h was 0 ng/g. Moreover, in data set [6] (plasma, read-out: Plasma), the concentration at 0.25 h came out at 1500 ng/mL and the concentration at 2 h turned out to be 28 ng/mL.
Take `CCc1cc2c([nH]c1=O)CC(CN1CC=C(c3ccc(C(=O)NC)nc3F)CC1)OC2` (stereo not drawn) [Compound 6, 1'-((3-Ethyl-2-oxo-1,5,7,8-tetrahydro-2H-pyrano[4,3-b]pyridin-7-yl)methyl)-2-fluoro -N-methyl-1',2',3',6'-tetrahydro-[3,4'-bipyridine]-6-carbo xamide]: the values for the half-inhibitory concentration (IC50) (on PARP1; in data set [1]; in data set [2]) were at most 50 nM, 1 nM and over 1000 nM, respectively. Also, the “inhibitory effects” value in data set [4] was “Conclusion: Compounds 2, 6, 45, 62, 67, 74, 83, 87, etc., of the present disclosure exhibited relatively weak inhibitory effects on the hERG potassium ion channel”. Besides, the inhibition at 2.5 min, 20 µM in data set [4] came out at 7.97%.
For the molecule `[2H]C([2H])([C@H]1CCc2nc(C)c(=O)[nH]c2C1)N1CCN(c2ccc(C(=O)NC)nc2Cl)CC1` [Example 85, (S)-6-Chloro-N-methyl-5-(4-((2-methyl-3-oxo-3,4,5,6,7,8-hexahydroquinoxalin-6-yl)methyl-d2)piperazin-1-yl)picolinamide], the half-inhibitory concentration (IC50) was at most 50 nM on PARP1, 7 nM in data set [1], over 1000 nM in data set [2] and over 1000 nM in data set [3].
Consider `Cc1cc2c([nH]c1=O)CC(CN1CCN(c3ccc(C(=O)NC4CC4)nc3Cl)CC1)OC2` (stereo not drawn) [Example 62, 6-Chloro-N-cyclopropyl-5-(4-((3-methyl-2-oxo-1,5,7,8-tetrahydro-2H-pyrano[4,3-b]pyridin-7-yl)methyl)piperazin-1-yl)picolinamide], for which the values for the IC50 (at PARP1; in data set [1]; in data set [2]) were at most 50 nM, 3.5 nM and over 1000 nM, respectively. In addition, the “inhibitory effects” value in data set [4] was “Conclusion: Compounds 2, 6, 45, 62, 67, 74, 83, 87, etc., of the present disclosure exhibited relatively weak inhibitory effects on the hERG potassium ion channel”. For the same molecule, the inhibition at 2.5 min, 20 µM in data set [4] was 49.8%.
